Measurements: the NIST ThermoML archive (doi:10.1016/j.jct.2014.07.018)
Where “and” joins values, the source holds several entries; their conditions need not be identical. Identical values can stand only once.

Assay: molar heat capacity at constant pressure
Details: 101.33 kPa, Vacuum adiabatic calorimetry

CCC[n+]1ccn(C)c1.[Br-] [1-methyl-3-propylimidazolium bromide]
molar heat capacity at constant pressure
Details	Crystal 2	Glass
71.72 K	–	90.74 J/K/mol
73.18 K	86.57 J/K/mol	–
73.83 K	–	92.54 J/K/mol
75.5 K	88.58 J/K/mol	–
75.93 K	–	94.45 J/K/mol
77.81 K	90.59 J/K/mol	–
78.04 K	–	96.34 J/K/mol
78.3 K	90.96 J/K/mol	–
78.68 K	91.25 J/K/mol	–
79.18 K	–	97.3 J/K/mol
80 K	92.3 J/K/mol	97.87 J/K/mol
80.13 K	92.58 J/K/mol	–
80.17 K	–	98.2 J/K/mol
80.36 K	92.62 J/K/mol	–
80.94 K	93.01 J/K/mol	–
81.21 K	–	98.9 J/K/mol
82.27 K	94.04 J/K/mol	–
82.29 K	–	99.76 J/K/mol
82.46 K	94.26 J/K/mol	–
82.87 K	94.47 J/K/mol	–
83.14 K	–	100.3 J/K/mol
84.2 K	95.47 J/K/mol	–
84.42 K	–	101.2 J/K/mol
84.8 K	95.84 J/K/mol and 95.9 J/K/mol	–
85.07 K	–	101.7 J/K/mol
86.13 K	96.85 J/K/mol	–
86.73 K	97.28 J/K/mol	–
87.01 K	–	103.1 J/K/mol
88.08 K	98.24 J/K/mol	–
88.67 K	98.67 J/K/mol	–
88.94 K	–	104.6 J/K/mol
90 K	99.64 J/K/mol	105.4 J/K/mol
90.04 K	99.66 J/K/mol	–
90.6 K	100 J/K/mol	–
90.88 K	–	106 J/K/mol
92.01 K	101.1 J/K/mol	–
92.54 K	101.4 J/K/mol	–
92.82 K	–	107.4 J/K/mol
93.99 K	102.5 J/K/mol	–
94.48 K	102.8 J/K/mol	–
94.77 K	–	108.7 J/K/mol
95.98 K	103.8 J/K/mol	–
96.43 K	104.1 J/K/mol	–
96.72 K	–	110.1 J/K/mol
97.97 K	105.1 J/K/mol	–
98.38 K	105.4 J/K/mol	–
98.66 K	–	111.4 J/K/mol
99.98 K	106.5 J/K/mol	–
100 K	106.4 J/K/mol	112.3 J/K/mol
100.34 K	106.7 J/K/mol	–
100.62 K	–	112.7 J/K/mol
101.99 K	107.7 J/K/mol	–
102.29 K	107.9 J/K/mol	–
102.57 K	–	114 J/K/mol
104.01 K	109 J/K/mol	–
104.25 K	109.1 J/K/mol	–
104.53 K	–	115.3 J/K/mol
106.04 K	110.2 J/K/mol	–
106.21 K	110.3 J/K/mol	–
106.49 K	–	116.5 J/K/mol
108.08 K	111.5 J/K/mol	–
108.17 K	111.6 J/K/mol	–
108.45 K	–	117.8 J/K/mol
110 K	112.6 J/K/mol	118.7 J/K/mol
110.12 K	112.7 J/K/mol	–
110.14 K	112.7 J/K/mol	–
110.41 K	–	119 J/K/mol
112.1 K	113.9 J/K/mol	–
112.17 K	113.9 J/K/mol	–
112.38 K	–	120.2 J/K/mol
114.07 K	115 J/K/mol	–
114.22 K	115.1 J/K/mol	–
114.35 K	–	121.4 J/K/mol
116.04 K	116.2 J/K/mol	–
116.28 K	116.3 J/K/mol	–
116.32 K	–	122.6 J/K/mol
118.01 K	117.3 J/K/mol	–
118.29 K	–	123.8 J/K/mol
118.34 K	117.5 J/K/mol	–
119.98 K	118.4 J/K/mol	–
120 K	118.4 J/K/mol	124.8 J/K/mol
120.27 K	–	124.9 J/K/mol
120.41 K	118.7 J/K/mol	–
121.96 K	119.4 J/K/mol	–
122.24 K	–	126.1 J/K/mol
122.48 K	119.8 J/K/mol	–
123.94 K	120.6 J/K/mol	–
124.22 K	–	127.2 J/K/mol
124.56 K	121 J/K/mol	–
125.91 K	121.7 J/K/mol	–
126.2 K	–	128.4 J/K/mol
126.63 K	122.1 J/K/mol	–
127.9 K	122.8 J/K/mol	–
128.18 K	–	129.5 J/K/mol
128.72 K	123.2 J/K/mol	–
129.88 K	123.8 J/K/mol	–
130 K	123.9 J/K/mol	130.6 J/K/mol
130.17 K	–	130.7 J/K/mol
130.8 K	124.4 J/K/mol	–
131.86 K	124.9 J/K/mol	–
132.15 K	–	131.8 J/K/mol
132.89 K	125.5 J/K/mol	–
133.84 K	126 J/K/mol	–
134.14 K	–	132.9 J/K/mol
134.99 K	126.6 J/K/mol	–
135.84 K	127 J/K/mol	–
136.13 K	–	134 J/K/mol
137.08 K	127.7 J/K/mol	–
137.83 K	128 J/K/mol	–
138.12 K	–	135.2 J/K/mol
139.18 K	128.7 J/K/mol	–
139.83 K	129.1 J/K/mol	–
140 K	129.2 J/K/mol	136.2 J/K/mol
140.12 K	–	136.3 J/K/mol
141.28 K	129.8 J/K/mol	–
141.83 K	130.1 J/K/mol	–
142.11 K	–	137.4 J/K/mol
143.39 K	130.9 J/K/mol	–
143.83 K	131.1 J/K/mol	–
144.11 K	–	138.5 J/K/mol
145.49 K	132 J/K/mol	–
145.83 K	132.1 J/K/mol	–
146.11 K	–	139.7 J/K/mol
147.6 K	133 J/K/mol	–
